Results as given in the NIST ThermoML archive (doi:10.1021/je800548t).
± gives the expanded uncertainty stated by the source.

Conditions: Liquid, Ebulliometric method (Recirculating still)

| vapor or sublimation pressure (305 K) [kPa] | vapor or sublimation pressure (310 K) [kPa] | vapor or sublimation pressure (315 K) [kPa] | vapor or sublimation pressure (320 K) [kPa] | vapor or sublimation pressure (325 K) [kPa] | vapor or sublimation pressure (330 K) [kPa] | vapor or sublimation pressure (335 K) [kPa] | vapor or sublimation pressure (340 K) [kPa] | vapor or sublimation pressure (342 K) [kPa] | vapor or sublimation pressure (321 K) [kPa] | vapor or sublimation pressure (345 K) [kPa] | vapor or sublimation pressure (350 K) [kPa] | vapor or sublimation pressure (355 K) [kPa] | vapor or sublimation pressure (359 K) [kPa] | SMILES |
| --- | --- | --- | --- | --- | --- | --- | --- | --- | --- | --- | --- | --- | --- | --- |
| 34.81 ± 0.14 | 42.47 ± 0.17 | 51.43 ± 0.21 | 61.85 ± 0.25 | 73.88 ± 0.3 | 87.71 ± 0.36 | 103.5 ± 0.42 | 121.45 ± 0.49 | 129.28 ± 0.52 | – | – | – | – | – | ClC(Cl)Cl [trichloromethane] |
| – | – | – | – | 32.02 ± 0.26 | 40.44 ± 0.33 | 50.67 ± 0.41 | 63 ± 0.51 | – | 26.41 ± 0.21 | 77.77 ± 0.63 | 95.35 ± 0.77 | 116.13 ± 0.93 | 135.37 ± 1.1 | CCO [ethanol] |
